Literature values, collected in US8062633B2, “Surface sanitizer for the food industry based on three new lactic acid bacteria that have antagonistic action against Listeria monocytogenes, the microorganism that causes listeriosis in humans” (Universidad Austral de Chile, priority 2009, dated 2011).

Experiments:
[1] = test system: Listeria monocytogenes Scott A; settings: tofu stored at 10° C.
L. monocytogenes = settings: 48 h of incubation

In the case of nisin, the “development of L. monocytogenes in tofu” value [1] is listed as “Listeria started to grow again from the second day onward” and the “regrowth of L. monocytogenes in culture broth” value (L. monocytogenes) is listed as “developed resistance and grew again after 48 h”.
